Test results from patent publication US20220357341A1, “COMPOSITIONS AND METHODS FOR AN IL-17 TARGET ENGAGEMENT ASSAY WITH SMALL MOLECULE MODULATORS” (Janssen Pharmaceutica NV, priority 2019, published 2022).

B1: mAb4538 (Janssen Biotech, Inc.) (antibody, human IgG1, lambda, V domains shown)
VH: QVQLQQSGPGLVKPSQTLSLTCAISGDSVSSSSAAWGWIRQSPSRGLEWLGRISYRSKWYNDYAVSVKSRITINPDTSKNQFSLQLNSVTPEDTAVYYCAREVDSMYYSYFDIWGQGTLVTVSS
VL: EIVLTQSPATLSLSPGERATLSCRASQNVWAFYLAWYQQKPGQAPRLLIYGASNRATGIPARFSGSGSGTDFTLTISSLEPEDFAVYYCQQYRSTLSLTFGQGTKVEIKG
notes: also called human mAb4538 antibody

Target: T1, human IL-17 (interleukin 17A), recombinant, free (not bound to a small molecule modulator) (human, UniProt Q16552 24-155, limits assumed)
T1 construct: Recombinant IL-17 used as calibrator in the sandwich ELISAs; also called IL-17A; free IL-17
Test: sandwich ELISA: plate coated with capture antibody of DuoSet DY317, IL-17A titrated in 0.1% DMSO vehicle, mAb4538 at 500 ng/mL as detection agent, streptavidin-HRP readout
Settings: not given
Description: (§1) High binding 96-well plates were coated with 100 μL/well of 4 μg/ml capture antibody in PBS overnight at room temperature. Coated plates were washed 6×400 μL/well on plate washer (Zoom HT Microplate Washer) and blocked with 300 μL/well blocker (1% BSA in PBS) at room temperature for 2.5 hours followed by 6×400 μL/well on plate washer.
Samples were prepared by incubating titrated IL-17 with SM modulators at final concentration of 10 μM. IL-17 levels were measured in ELISA assay by adding 95 μL/well samples to the capture antibody coated plates. Plates were kept at room temperature for 30 minutes and then 5 μL/well of detecting agent were added to a final of 500 ng/mL, kept at room temperature for another 30 minutes, followed by washing 6×400 μL/well on plate washer. […] Reaction was then stopped by addition of 50 μL/well of stop solution and plates were measured in plate reader at 450-540 nm.
(§2) Optical density (OD) readout from plate reader (Molecular Devices Spectra Max 340fPC) were analyzed with Softmax Pro6.3 and GraphPad Prism, and plotted as dose response curve of OD values vs IL-17 concentrations.

T1 sequence (Q16552 24-155 limits assumed): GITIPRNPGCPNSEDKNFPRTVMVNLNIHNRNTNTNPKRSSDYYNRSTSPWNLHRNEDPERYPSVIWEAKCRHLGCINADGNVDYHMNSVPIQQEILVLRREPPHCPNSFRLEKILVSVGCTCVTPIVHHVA

Molecule	binding result
B1	binds

Target: T2, IL-17 (Homo sapiens, UniProt Q16552)
T2 construct: serial dilutions of recombinant IL-17 were prepared in diluent
Test: Free IL-17 ELISA: capture antibody of DuoSet ELISA kit DY317 paired with mAb4538 as detection agent, IL-17 titration with 10 μM SM modulator
Type: binding
Settings: capture antibody of DuoSet ELISA kit DY317, detection agent mAb4538 500 ng/ml, FIGS. 2A-2F
Description: Two-fold and 8-point serial dilutions of recombinant IL-17 were prepared in diluent starting from 1 ng/ml, in duplicate. For testing differentiating property on SM modulators, IL-17 calibration samples were prepared in the presence of 10 μM SM modulators or vehicle control containing 0.1% DMSO. IL-17 samples were incubated for 1 hour at 37° C.
as §1
Samples were prepared by incubating titrated IL-17 with SM modulators at final concentration of 10 μM. IL-17 levels were measured in ELISA assay by adding 95 μL/well samples to the capture antibody coated plates. Plates were kept at room temperature for 30 minutes and then 5 μL/well of detecting agent were added to a final of 500 ng/mL, kept at room temperature for another 30 minutes, followed by washing 6×400 μL/well on plate washer. Development of color for measurement was performed by adding streptavidin conjugated horseradish peroxidase at 100 μL/well and incubated for 20 minutes at room temperature in the dark, followed by 6×400 μL/well on plate washer, and then addition of 100 μL/well pf substrate solution, incubated for 20 minutes at room temperature in the dark. Reaction was then stopped by addition of 50 μL/well of stop solution and plates were measured in plate reader at 450-540 nm.
as §2

T2 sequence (Q16552 24-155): as the sequence (Q16552 24-155 limits assumed) above

Molecule	detection of free IL-17 versus SM modulator-bound IL-17 (OD vs IL-17 concentration)
NC(=O)CC[C@H]1NC(=O)[C@@H](Cc2ccc(NC(=O)[C@H](Cc3ccccc3Cl)NC(=O)Cc3ccc(F)cc3)cc2)NC(=O)CC2(CCCC2)CC(=O)NCCCCCNC1=O [Compound #2]	detection of free IL-17, but not modulator-bound IL-17
O=C1CNC(=O)[C@@H](Cc2ccc(NC(=O)[C@H](Cc3ccccc3Cl)NC(=O)Cc3ccccc3)cc2)NC(=O)CC2(CCCC2)CC(=O)NCCCCCN1 [Compound #5]	detection of free IL-17, but not modulator-bound IL-17
O=C(CC1(CC(=O)N2CCCC2)CCCC1)NCCc1ccc(NC(=O)[C@H](Cc2ccccc2Cl)NC(=O)C(F)(F)c2ccccc2)cc1 [Compound #6]	detection of free IL-17, but not modulator-bound IL-17
C[C@H]1NC(=O)[C@@H](Cc2ccc(NC(=O)[C@H](Cc3ccccc3Cl)NC(=O)Cc3ccc(F)cc3)cc2)NC(=O)CC2(CCCC2)CC(=O)N[C@H](C(=O)O)CCCCNC1=O [Compound #3]	detection of free IL-17, but not modulator-bound IL-17
C[C@H]1NC(=O)[C@@H](Cc2ccc(NC(=O)[C@H](Cc3ccccc3Cl)NC(=O)Cc3ccc(CO)cc3)cc2)NC(=O)CC2(CCCC2)CC(=O)NCCCCCNC1=O [Compound #4]	detection of free IL-17, but not modulator-bound IL-17
